In brackets after ≈: the same amount, converted by molar mass.
How the values were obtained:
Assay in all cases: MIC, agar incorporation method
S. pneumoniae AB-3 = assay type: cell-based, Streptococcus pneumoniae; conditions: Streptococcus pneumoniae, AB3
S. aureus (MRSA) ST450 = assay type: cell-based, Staphylococcus aureus; conditions: Staphylococcus aureus, MRSA
E. faecalis 21777 = assay type: cell-based; conditions: Enterococcus faecalis, 21777
S. haemo ATCC 29970 = assay type: cell-based
P. aeruginosa ATCC 27853 = assay type: cell-based; conditions: Pseudomonas aeruginosa, ATCC27853
S. pneumoniae 1256 = assay type: cell-based, Streptococcus pneumoniae; conditions: Streptococcus pneumoniae, 1256
S. pneumoniae AB 25 = assay type: cell-based, Streptococcus pneumoniae; conditions: Streptococcus pneumoniae, AB25
S. pneumoniae AB 34 = assay type: cell-based, Streptococcus pneumoniae; conditions: Streptococcus pneumoniae, AB34
S. aureus SG 511 = assay type: cell-based, Staphylococcus aureus; conditions: Staphylococcus aureus, SG511
E. faecalis 29212 = assay type: cell-based; conditions: Enterococcus faecalis, 29212
S. pneumoniae AB 29 = assay type: cell-based, Streptococcus pneumoniae; conditions: Streptococcus pneumoniae, AB29
[1] = tested on: Serratia marcescens 12999; assay type: cell-based; conditions: Serratia marcescens, 12999
E. faecalis SP 346 (VRE) = assay type: cell-based; conditions: Enterococcus faecalis, VRE
S. pyogenes 19615 = assay type: cell-based, Streptococcus pyogenes; conditions: Streptococcus pyogenes, 19615
[2] = tested on: S. epidermidis (MRSE)32965; assay type: cell-based, Staphylococcus epidermidis; conditions: Staphylococcus epidermidis, MRSE
S. epidermidis 358 = assay type: cell-based, Staphylococcus epidermidis; conditions: Staphylococcus epidermidis, 358
S. pneumoniae AB 22 = assay type: cell-based, Streptococcus pneumoniae; conditions: Streptococcus pneumoniae, AB22
S pneumoniae 1294. = assay type: cell-based, Streptococcus pneumoniae; conditions: Streptococcus pneumoniae, 1294.
S. pneumoniae CS 1687 = assay type: cell-based, Streptococcus pneumoniae; conditions: Streptococcus pneumoniae, CS1687
S. pneumoniae 1275 = assay type: cell-based, Streptococcus pneumoniae; conditions: Streptococcus pneumoniae, 1275
S. aureus ATCC29213 = assay type: cell-based, Staphylococcus aureus; conditions: Staphylococcus aureus, ATCC29213
Salmonella 205 = assay type: cell-based; conditions: S. No. 26, Salmonella 205; read-out: MIC
Protocol: The compounds of the invention display antibacterial activity when tested by the agar incorporation method. The following minimum inhibitory concentrations (μg/ml) were obtained for representative compounds of the invention which are given below in the following tables.
Briefly, the compounds were dissolved in DMSO and doubling dilution of the compounds were incorporated into Meer Hilton agar before solidification. Inoculum was prepared by suspending 4 to 5 colonies into 5 ml of normal saline solution and adjusting the turbidity to 0.5 Macfarland turbidity standard tables (1.5×10^8 CFU/ml), after appropriate dilutions, 10^4 CFU/spot was transfered into the surface of dried plate and incubated for 18 hours (24 hours for MRSN studies). The concentration showing no growth of the inoculated culture was recorded as the MIC. Appropriate ATCC standard strains were simultaneously tested and result recorded only when the MIC's against standard antibiotics were within the acceptable range.

E. faecium 398(VRE) = assay type: cell-based, Enterococcus faecium; conditions: Enterococcus faecium, VRE
S. pneumoniae AB 17 = assay type: cell-based, Streptococcus pneumoniae; conditions: Streptococcus pneumoniae, AB17
S. pneumoniae AB-2 = assay type: cell-based, Streptococcus pneumoniae; conditions: Streptococcus pneumoniae, AB2
S. aureus (Smith 49951) = assay type: cell-based, Staphylococcus aureus; conditions: Staphylococcus aureus
(MRSA) 562 = assay type: cell-based, Staphylococcus aureus; conditions: Staphylococcus aureus, MRSA
S. pneumoniae AB 30 = assay type: cell-based, Streptococcus pneumoniae; conditions: Streptococcus pneumoniae, AB30
S. pneumoniae CS1221 = assay type: cell-based, Streptococcus pneumoniae; conditions: Streptococcus pneumoniae, CS1221
S. pneumoniae ATCC 49619 = assay type: cell-based, Streptococcus pneumoniae; conditions: Streptococcus pneumoniae, ATCC49619
S. pyogenes 25147 = assay type: cell-based, Streptococcus pyogenes; conditions: Streptococcus pyogenes, 25147

O=C(NC[C@H]1CN(c2ccc(N3CCN(c4ccc([N+](=O)[O-])s4)CC3)c(F)c2)C(=O)O1)C(F)F [Compound No. 8, (S)—N-[[3-[3-Fluoro-4-[4-(5-nitro-2-thienyl)-1-piperazinyl]phenyl]-2-oxo-5-oxazolidinyl]methyl]difluoroacetamide]
MIC (S. pneumoniae AB-3): 0.125 µg/mL (≈ 0.25 µM) | MIC (S. aureus (MRSA) ST450): 2 µg/mL (≈ 4 µM) | MIC (E. faecalis 21777): 2 µg/mL (≈ 4 µM) | MIC (S. haemo ATCC 29970): 0.25 µg/mL (≈ 0.501 µM) | MIC (P. aeruginosa ATCC 27853): > 8 µg/mL | MIC (S. pneumoniae 1256): 0.125 µg/mL (≈ 0.25 µM) | MIC (S. pneumoniae AB 25): 0.25 µg/mL (≈ 0.501 µM) | MIC (S. pneumoniae AB 34): 0.5 µg/mL (≈ 1 µM) | MIC (S. aureus SG 511): 0.25 µg/mL (≈ 0.501 µM) | MIC (E. faecalis 29212): 0.25 µg/mL (≈ 0.501 µM) | MIC (S. pneumoniae AB 29): 0.25 µg/mL (≈ 0.501 µM) | MIC [1]: > 8 µg/mL | MIC (E. faecalis SP 346 (VRE)): 0.25 µg/mL (≈ 0.501 µM) | MIC (S. pyogenes 19615): 0.25 µg/mL (≈ 0.501 µM) | MIC [2]: 0.25 µg/mL (≈ 0.501 µM) | MIC (S. epidermidis 358): 0.25 µg/mL (≈ 0.501 µM) | MIC (S. pneumoniae AB 22): 0.25 µg/mL (≈ 0.501 µM) | MIC (S pneumoniae 1294.): 0.25 µg/mL (≈ 0.501 µM) | MIC (S. pneumoniae CS 1687): 0.25 µg/mL (≈ 0.501 µM) | MIC (S. pneumoniae 1275): 0.06 µg/mL (≈ 0.12 µM) | MIC (S. aureus ATCC29213): 2 µg/mL (≈ 4 µM) | MIC (Salmonella 205): > 8 µg/mL | MIC (E. faecium 398(VRE)): 0.25 µg/mL (≈ 0.501 µM) | MIC (S. pneumoniae AB 17): 0.25 µg/mL (≈ 0.501 µM) | MIC (S. pneumoniae AB-2): 0.125 µg/mL (≈ 0.25 µM) | MIC (S. aureus (Smith 49951)): 1 µg/mL (≈ 2 µM) | MIC ((MRSA) 562): 2 µg/mL (≈ 4 µM) | MIC (S. pneumoniae AB 30): 0.25 µg/mL (≈ 0.501 µM) | MIC (S. pneumoniae CS1221): 0.125 µg/mL (≈ 0.25 µM) | MIC (S. pneumoniae ATCC 49619): 0.25 µg/mL (≈ 0.501 µM) | MIC (S. pyogenes 25147): 0.25 µg/mL (≈ 0.501 µM)

From patent US20060293307A1, “Oxazolidinone derivatives as antimicrobials” (priority 2002, published 2006)
